Key:
Type in all cases: cell-based
[1] = tested on: A549 (lung carcinoma) cell line; test: MTT cytotoxicity assay, A549; conditions: Homo sapiens, 48 h, mean of three independent experiments, read-out: IC50 (μM) Mean ± SD, A549
Description: (§1) All cell lines (A549, SGC-7901, Hela, SMMC-7721, and MCF-7) were purchased from the American Type Culture Collection (Manassas, VA, USA), and were cultured in Dulbecco’s modified Eagle’s medium (DMEM, HycloneLaboratories Inc., Logan, Utah, USA) supplemented with 10% fetal bovine serum (FBS, Gibco&Invitrogen, Carlsbad, CA, USA) at 37 °C and 5% CO2.
(§2) The cytotoxic activities of β-carboline-3-carboxylic acid derivatives were investigated by the MTT method, as previously described. Cells (1 × 10^4 cells per well) seeded into 96-well plates (JET, Guangzhou, China) were incubated with DMEM containing various concentrations (2.5, 5, 10, 20, 40, and 80 μM) of β-carbolines (4A, 4B, 4C, 4D, 6a-6f, 6g-6l, 6m-6r, and 6s-6x) for 48 h at 37 °C and 5% CO2. Then, 10 µL of 5 mg/mL MTT reagent dissolved in PBS (Phosphate buffered saline) was added per well, and plates were incubated at 37 °C for 4 h. The medium was carefully removed and 100 µL dimethyl sulfoxide (DMSO) was added to dissolve the formazan crystals. The absorbance was measured at 490 nm with a microplate reader (ThermoFisher Scientific Inc., Waltham, MA, USA). The β-carbolines were dissolved in DMSO as stock solutions (10 mM) at −20 °C, and diluted in the final experimental solution using DMEM before use. A549 (lung carcinoma), SGC-7901 (gastric carcinoma), Hela (cervical carcinoma), SMMC-7721 (liver carcinoma), and MCF-7 (breast carcinoma) cell lines were used for the antitumor activity screening. The IC50 values were the mean values of three independent experiments.

[2] = tested on: SGC-7901 (gastric carcinoma) cell line; test: MTT cytotoxicity assay, SGC-7901; conditions: Homo sapiens, 48 h, mean of three independent experiments, read-out: IC50 (μM) Mean ± SD, SGC-7901
Description: as §1, §2

[3] = tested on: Hela (cervical carcinoma) cell line; test: MTT cytotoxicity assay, Hela; conditions: Homo sapiens, 48 h, mean of three independent experiments, read-out: IC50 (μM) Mean ± SD, Hela
Description: as §1, §2

[4] = tested on: SMMC-7721 (liver carcinoma) cell line; test: MTT cytotoxicity assay, SMMC-7721; conditions: Homo sapiens, 48 h, mean of three independent experiments, read-out: IC50 (μM) Mean ± SD, SMMC-7721
Description: as §1, §2

[5] = tested on: MCF-7 (breast carcinoma) cell line; test: MTT cytotoxicity assay, MCF-7; conditions: Homo sapiens, MCF7, 48 h, mean of three independent experiments, read-out: IC50 (μM) Mean ± SD, MCF-7
Description: as §1, §2

[6] = tested on: MRC5 (normal lung cell) cell line; test: MTT cytotoxicity assay, MRC5; conditions: Homo sapiens, 48 h
Description: [The procedure below names another cell line; the source lists this cell line under the same test.] as §2

Cc1ccc(Cn2c3ccccc3c3cc(C(=O)OCCCCOC(=O)c4cc5c6ccccc6n(Cc6ccc(C)cc6)c5cn4)ncc32)cc1 [Compound 6n]
IC50 [1]: 13.4 ± 0.35 µM | IC50 [2]: 37.8 ± 1.02 µM | IC50 [3]: 28 ± 0.99 µM | IC50 [4]: 42.7 ± 2.18 µM | IC50 [5]: 49.1 ± 2.23 µM | IC50 [6]: 26.39 ± 0.01 µM

Cc1ccc(Cn2c3ccccc3c3cc(C(=O)OCCCCCOC(=O)c4cc5c6ccccc6n(Cc6ccc(C)cc6)c5cn4)ncc32)cc1 [Compound 6o]
IC50 [1]: 11.2 ± 0.61 µM | IC50 [2]: 17.18 ± 0.03 µM | IC50 [3]: 18.8 ± 0.46 µM | IC50 [4]: 36.62 ± 0.12 µM | IC50 [5]: 49.4 ± 1.65 µM | IC50 [6]: 31.28 ± 0.07 µM

O=c1[nH]cc(F)c(=O)[nH]1 [Compound 5-FU, 5-fluorouracil, reference compound]
IC50 [1]: 15.39 ± 0.09 µM | IC50 [2]: > 80 µM | IC50 [3]: > 80 µM | IC50 [4]: 52.3 ± 2.06 µM | IC50 [5]: 57.7 ± 1.39 µM | IC50 [6]: 16.3 ± 0.3 µM

O=C(OCCCCCCCCOC(=O)c1cc2c3ccccc3n(Cc3ccccc3)c2cn1)c1cc2c3ccccc3n(Cc3ccccc3)c2cn1 [Compound 6e]
IC50 [1]: 50.3 ± 3.15 µM | IC50 [2]: 69.97 ± 0.13 µM | IC50 [3]: 54 ± 0.56 µM | IC50 [4]: 75.4 ± 0.89 µM | IC50 [5]: > 80 µM | IC50 [6]: > 100 µM

O=C(OCCCCCCCCOC(=O)c1cc2c3ccccc3n(Cc3ccccc3F)c2cn1)c1cc2c3ccccc3n(Cc3ccccc3F)c2cn1 [Compound 6w]
IC50 [1]: 16.5 ± 0.33 µM | IC50 [2]: 29.98 ± 0.07 µM | IC50 [3]: 31.3 ± 1.88 µM | IC50 [4]: 44.57 ± 0.02 µM | IC50 [5]: 76.3 ± 3.36 µM | IC50 [6]: 60.78 ± 0.16 µM

Cc1ccc(Cn2c3ccccc3c3cc(C(=O)OCCCOC(=O)c4cc5c6ccccc6n(Cc6ccc(C)cc6)c5cn4)ncc32)cc1 [Compound 6m]
IC50 [1]: 19.84 ± 0.04 µM | IC50 [2]: 18.4 ± 0.31 µM | IC50 [3]: 17.95 ± 0.02 µM | IC50 [4]: 33.32 ± 0.03 µM | IC50 [5]: 28.43 ± 0.28 µM | IC50 [6]: 49.05 ± 0.12 µM

O=C(OCCCCOC(=O)c1cc2c3ccccc3n(Cc3ccccc3F)c2cn1)c1cc2c3ccccc3n(Cc3ccccc3F)c2cn1 [Compound 6t]
IC50 [1]: 12.4 ± 0.59 µM | IC50 [2]: 9.01 ± 0.19 µM | IC50 [3]: 15.2 ± 0.32 µM | IC50 [4]: 18.26 ± 0.18 µM | IC50 [5]: 25.7 ± 1.21 µM | IC50 [6]: > 100 µM

O=C(OCCCCCOC(=O)c1cc2c3ccccc3n(Cc3ccccc3)c2cn1)c1cc2c3ccccc3n(Cc3ccccc3)c2cn1 [Compound 6c]
IC50 [1]: 17.65 ± 0.09 µM | IC50 [2]: 18.72 ± 0.07 µM | IC50 [3]: 18.15 ± 0.03 µM | IC50 [4]: 55.15 ± 0.03 µM | IC50 [5]: 76.9 ± 3.01 µM | IC50 [6]: 39.34 ± 0.11 µM

O=C(OCCCCOC(=O)c1cc2c3ccccc3n(Cc3ccccc3)c2cn1)c1cc2c3ccccc3n(Cc3ccccc3)c2cn1 [Compound 6b]
IC50 [1]: 12.26 ± 0.04 µM | IC50 [2]: 15.5 ± 0.32 µM | IC50 [3]: 18.2 ± 0.52 µM | IC50 [4]: 66.53 ± 0.31 µM | IC50 [5]: 70.9 ± 2.33 µM | IC50 [6]: 64.44 ± 0.09 µM

O=C(OCCCCCCOC(=O)c1cc2c3ccccc3n(Cc3ccccc3)c2cn1)c1cc2c3ccccc3n(Cc3ccccc3)c2cn1 [Compound 6d]
IC50 [1]: 40.03 ± 0.15 µM | IC50 [2]: 58.4 ± 0.72 µM | IC50 [3]: 32.36 ± 0.02 µM | IC50 [4]: 33.49 ± 0.01 µM | IC50 [5]: 75.5 ± 2.32 µM | IC50 [6]: 66.99 ± 0.1 µM

O=C(OCCCOC(=O)c1cc2c3ccccc3n(Cc3ccccc3)c2cn1)c1cc2c3ccccc3n(Cc3ccccc3)c2cn1 [Compound 6a]
IC50 [1]: 24.27 ± 0.12 µM | IC50 [2]: 17.76 ± 0.17 µM | IC50 [3]: 17.89 ± 0.03 µM | IC50 [4]: 25.7 ± 0.32 µM | IC50 [5]: 73.5 ± 0.88 µM | IC50 [6]: 32.57 ± 0.1 µM

Cc1ccccc1Cn1c2ccccc2c2cc(C(=O)OCCCCOC(=O)c3cc4c5ccccc5n(Cc5ccccc5C)c4cn3)ncc21 [Compound 6h]
IC50 [1]: 8.09 ± 0.25 µM | IC50 [2]: 17.8 ± 0.93 µM | IC50 [3]: 45.8 ± 0.55 µM | IC50 [4]: 24.7 ± 0.5 µM | IC50 [5]: 76.7 ± 5 µM | IC50 [6]: 50.78 ± 0.09 µM

COC(=O)c1cc2c3ccccc3n(Cc3ccccc3)c2cn1 [Compound 4A]
IC50 [1]: > 80 µM | IC50 [2]: > 80 µM | IC50 [3]: > 80 µM | IC50 [4]: > 80 µM | IC50 [5]: > 80 µM | IC50 [6]: 35.6 ± 0.3 µM

Cc1ccccc1Cn1c2ccccc2c2cc(C(=O)OCCCCCCOC(=O)c3cc4c5ccccc5n(Cc5ccccc5C)c4cn3)ncc21 [Compound 6j]
IC50 [1]: 12.18 ± 0.06 µM | IC50 [2]: 26.3 ± 1.03 µM | IC50 [3]: 18.1 ± 1.03 µM | IC50 [4]: 16.68 ± 0.03 µM | IC50 [5]: 64.5 ± 3.31 µM | IC50 [6]: 41 ± 0.07 µM

O=C(OCCCCCCOC(=O)c1cc2c3ccccc3n(Cc3ccccc3F)c2cn1)c1cc2c3ccccc3n(Cc3ccccc3F)c2cn1 [Compound 6v]
IC50 [1]: 7.95 ± 0.06 µM | IC50 [2]: 8.6 ± 0.13 µM | IC50 [3]: 22.9 ± 1.36 µM | IC50 [4]: 24.65 ± 0.06 µM | IC50 [5]: 42.4 ± 2.08 µM | IC50 [6]: 67.75 ± 0.11 µM

Cc1ccccc1Cn1c2ccccc2c2cc(C(=O)OCCCCCCCCOC(=O)c3cc4c5ccccc5n(Cc5ccccc5C)c4cn3)ncc21 [Compound 6k]
IC50 [1]: 37.4 ± 2.08 µM | IC50 [2]: 35 ± 2.09 µM | IC50 [3]: 36.7 ± 2.02 µM | IC50 [4]: 33.9 ± 0.52 µM | IC50 [5]: 44.9 ± 2.99 µM | IC50 [6]: 65.85 ± 0.07 µM

O=C(OCCCOC(=O)c1cc2c3ccccc3n(Cc3ccccc3F)c2cn1)c1cc2c3ccccc3n(Cc3ccccc3F)c2cn1 [Compound 6s]
IC50 [1]: 6.12 ± 0.03 µM | IC50 [2]: 8.06 ± 0.08 µM | IC50 [3]: 13.77 ± 0.11 µM | IC50 [4]: 14.71 ± 0.08 µM | IC50 [5]: 25.2 ± 1.12 µM | IC50 [6]: 22.82 ± 0.02 µM

COC(=O)c1cc2c3ccccc3n(Cc3ccc(C)cc3)c2cn1 [Compound 4C]
IC50 [1]: 28.06 ± 0.13 µM | IC50 [2]: 47.98 ± 0.09 µM | IC50 [3]: 42.6 ± 0.98 µM | IC50 [4]: > 80 µM | IC50 [5]: > 80 µM | IC50 [6]: 35.35 ± 0.3 µM

Cc1ccc(Cn2c3ccccc3c3cc(C(=O)OCCCCCCCCOC(=O)c4cc5c6ccccc6n(Cc6ccc(C)cc6)c5cn4)ncc32)cc1 [Compound 6q]
IC50 [1]: 23.65 ± 0.05 µM | IC50 [2]: 35.8 ± 0.82 µM | IC50 [3]: 45.2 ± 1.66 µM | IC50 [4]: 29.8 ± 0.93 µM | IC50 [5]: 43.1 ± 2.01 µM | IC50 [6]: 42.06 ± 0.09 µM

Cc1ccc(Cn2c3ccccc3c3cc(C(=O)OCCCCCCOC(=O)c4cc5c6ccccc6n(Cc6ccc(C)cc6)c5cn4)ncc32)cc1 [Compound 6p]
IC50 [1]: 19.28 ± 0.02 µM | IC50 [2]: 17.8 ± 0.22 µM | IC50 [3]: 15.7 ± 0.33 µM | IC50 [4]: 26.8 ± 0.51 µM | IC50 [5]: 55 ± 2.22 µM | IC50 [6]: 47.6 ± 0.02 µM

Cc1ccccc1Cn1c2ccccc2c2cc(C(=O)OCCCOC(=O)c3cc4c5ccccc5n(Cc5ccccc5C)c4cn3)ncc21 [Compound 6g]
IC50 [1]: 18.3 ± 0.28 µM | IC50 [2]: 29.4 ± 1.03 µM | IC50 [3]: 17.99 ± 0.15 µM | IC50 [4]: 73.5 ± 8.06 µM | IC50 [5]: 53.1 ± 2.28 µM | IC50 [6]: 32.61 ± 0.1 µM
